The values that follow come from patent US11660275B2, “Epilepsy treatment agent” (Eisai R&D Management Co., Ltd., priority 2018, dated 2023).

Assay [1] has as its system mouse sound-induced convulsion model. Nature of the assay: Mouse sound-induced convulsion model (tonic convulsion, hindlimb extension). In kind it is in vivo. The note with it: 0.5 h, DBA/2 JJcl mice, oral, sound stimulation 30 minutes after administration, % Tonic convulsion, regression analysis. On the procedure:
A mouse sound-induced convulsion model test was carried out to confirm the suppressive effect on convulsions. Tonic convulsion induced by sound stimulation is used as the index for evaluation in this model (European Journal of Pharmacology, 222, p 193-203(1992)).
Three-week-old male DBA/2 JJcl mice (Clea Japan, Inc.) were provided for the test (n=5 for each treatment, total 2 times). Tonic convulsion induced by sound stimulation was used as the indicator for evaluation (see aforementioned publication).
Compound (Ia) and/or compound (11) was dissolved in a 0.4% methyl cellulose/5% cremophor/5% IN hydrochloric acid/10% dimethyl sulfoxide solution for an administered dose of 20 mL/kg each to prepare samples which were orally administered. A mixed solution without the compound (vehicle) was used as a negative control. Sound stimulation (11 kHz, 115 dB, duration: 30 sec) was carried out 30 minutes after administration of the samples, to induce convulsions. Immediately after cessation of the sound stimulation, tonic convulsion was evaluated by observing the presence or absence of hindlimb extension. […]

Assay [2] relates to mouse kindling models. The settings on record: PTL 1; cited from earlier work.

Structures are written as SMILES.

Turning to `N#Cc1ccccc1-c1cc(-c2ccccn2)cn(-c2ccccc2)c1=O` [compound (II), 3-(2-cyanophenyl)-5-(2-pyridyl)-1-phenyl-1,2-dihydropyridin-2-one, reference compound], the ED50 in assay [1] was determined as 0.33 mg/kg.

`NS(=O)(=O)N[C@H]1c2c(F)c(F)cc(F)c2CC1(F)F` [compound (Ic), (+)-N-(2,2,4,6,7-pentafluoro-2,3-dihydro-1H-inden-1-yl)sulfamide]: the “effect on seizure severity (score)” value in assay [2] was “ameliorating effect”. Consider `NS(=O)(=O)N[C@H]1c2c(F)cc(F)cc2CC1(F)F` [compound (Ia), N-[(1S)-2,2,5,7-tetrafluoro-2,3-dihydro-1H-inden-1-yl]sulfamide], for which the median effective dose (ED50) in assay [1] was found to be 53 mg/kg. In assay [2], the “effect on seizure severity (score)” value was “ameliorating effect”. In the case of `NS(=O)(=O)N[C@H]1c2c(F)ccc(F)c2CC1(F)F` [compound (Ib), N-[(1S)-2,2,4,7-tetrafluoro-2,3-dihydro-1H-inden-1-yl]sulfamide], in assay [2], the “effect on seizure severity (score)” value is “ameliorating effect”.
